“Also recorded” adds a separate entry of the source.
Assays:
SKBr3 cells = assay: Nexin assay for early and late apoptosis (flow cytometry); type: cell-based, human; conditions: 50 μM or 100 μM Q10, 24 hours
Excerpt: (§1) The 7AAD dye will enter into cells with permeabilized cell membranes; primarily those cells that are in late apoptosis. Annexin-V-PE is a dye that binds to Phosphotidyl serine, which is exposed on the outer surface of the plasma membrane in early apoptotic cells. The Nexin reagent thus can be used to differentiate between different populations of apoptotic cells in a flow cytometer.

[1] = test system: Lactate Dehydrogenase (LDH); assay: Western blot of Lactate Dehydrogenase levels in cells treated with Coenzyme Q10; type: cell-based, human; conditions: HepG2, 5 g, 24 h, 50 μM
Protocol: The samples were processed and run on a 4-12% Bis-Tris Novex NuPAGE gel as described above. The gels were run, transferred and stained essentially as described above.
After transfer each blot was dried for 15-20 minutes, activated with methanol for 5 seconds, washed with water for 5 minutes, and TBST for 15 minutes. The blots were blocked for 1 hour with 5% blocking reagent in TBS-T at room temperature and then washed 3 times with TBS-T (1×-15′; 2×5′ each) and probed with the primary antibody for Lactate Dehydrogenase (abcam ab2101; polyclonal) in 5% BSA (at 1:1000 dilutions) by incubation overnight at 4 deg C. with shaking. After the overnight incubation with primary antibody for Lactate Dehydrogenase, the blots were washed 3 times with TBS-T (1×-15′; 2×5′ each) and probed with the secondary antibody (rabbit antigoat; 1:10,000 dilution) for 1 h at room temperature. After 1 h of incubation with secondary antibodies, the blots were washed 3 times with TBS-T (1×-15′; 2×5′ each) and then incubated with ECF reagent for 5 mins and then each blot scanned with 5100 Fuji Laser scanner at 25 uM resolution, 16 bit, green laser, at 400V and at 500 V. […]
The levels of LDH and PDH were determined by probing the blots successively with primary antibodies for LDH and PDH, essentially as described above. […]

PaCa2 cells = assay: Nexin assay for early and late apoptosis (flow cytometry); type: cell-based; conditions: 50 μM and 100 μM Q10, 24 hours
Excerpt: as §1

MCF-7 cells = assay: as above; type: cell-based; conditions: 50 μM and 100 μM Q10, 24 hours
Excerpt: as §1

HepG2 cells = assay: as above; type: cell-based; conditions: 50 μM Q10, 24 hours
Excerpt: as §1

HDFa cells = assay: SeaHorse XF analyzer OCR and ECAR; type: cell-based, human; conditions: normoxic and hypoxic conditions, 5.5 mM and 22 mM glucose
Excerpt: Environmental influencers (e.g., MIMs or Epi-shifters) may also be identified by changes in cellular energetics. One example of the measurement of cellular energetics are the real-time measures of the consumption of molecular oxygen and/or the change in pH of the media of a cell culture. For example, the ability of a potential epi-shifter to modulate the metabolic state of a cell may be analyzed using, for example, the XF24 Analyzer (Seahorse, Inc.). This technology allows for real time detection of oxygen and pH changes in a monolayer of cells in order to evaluate the bioenergetics of a cell microenvironment. The XF24 Analyzer measures and compares the rates of oxygen consumption (OCR), which is a measure of aerobic metabolism, and extracellular acidification (ECAR), which is a measure of glycolysis, both key indicators of cellular energetics.
(SeaHorse Biosciences Inc, North Billerica, Mass.).
In this experiment, the OCR and extracellular acidification rate (ECAR) in normal cells lines were obtained in the presence and absence of CoQ10 to determine baseline values. It was observed that in its native nutrient environment, the basal OCR rates in normal cells lines are different, and are usually a function of the physiological roles of the cells in the body.
For example, one set of experiments were conducted using the non-cancerous cell line HDFa, which is a human adult dermal fibroblast cell line. Fibroblasts are cells that primarily synthesize and secrete extracellular matrix (ECM) components and collagen that form the structural framework (stroma) for tissues. In addition, fibroblasts are known to serve as tissue ambassadors of numerous functions such as wound healing and localized immnomodulation. Under normal physiological conditions, energy requirements in normal fibroblasts are met using a combination of glycolysis and oxidative phosphorylation—the glycolysis providing the necessary nutrients for synthesis of ECM.
FIGS. 29 and 30 describe the OCR in HDFa and HASMC cells grown in physiologically normal glucose (about 4.6 mM) and high glucose (hyperglycemic) conditions.

SCC cells = conditions: 100 μM Q10; 6 and/or 24 hr

COC1=C(OC)C(=O)C(C/C=C(\C)CC/C=C(\C)CC/C=C(\C)CC/C=C(\C)CC/C=C(\C)CC/C=C(\C)CC/C=C(\C)CC/C=C(\C)CC/C=C(\C)CCC=C(C)C)=C(C)C1=O [Q10, Coenzyme Q10]
early and late apoptosis (SKBr3 cells): did not show any significant increases of early and late apoptosis | Lactate Dehydrogenase Normalized Volume [1]: 7900 | increase in early and late apoptotic cells (PaCa2 cells): 5-10 % of gated cells | apoptotic population (MCF-7 cells): increase only in early apoptotic population | increase of gated population in late apoptotic and early apoptotic stages (HepG2 cells): about 20% | ECAR values (HDFa cells): minimal influence on ECAR values | Response (direction of protein spot change) (SCC cells): Increase; also recorded: hr, decrease
